Source: patent US6444685B1, “N-(4-sulfonylaryl)Cyclylamine 2-hydroxyethylamines as beta-3 adrenergic receptor agonists” (Wyeth, priority 2000, dated 2002)

Key:
Type in all cases: cell-based
[1] = target: T1, human β3 adrenergic receptor (Homo sapiens, UniProt P13945); assay: cAMP accumulation (SPA) in CHO cells transfected with human β3 adrenergic receptor; conditions: for EC50: CHO cells expressing human β3-AR, cAMP, 30 min incubation, 10^−9 M to 10^−5 M, read-out: beta-3 EC50; for beta-3 (IA) maximal response relative to isoproterenol: IA = % activity compound / % activity isoproterenol at 10^−5 M, CHO human β3 cells
T1 construct: Full length β3 AR clones (402 amino acids) containing the last 6 amino acids of hβ3— AR are prepared; expressed in transfected cells; host or cells: CHO cells
T1 sequence (P13945 whole entry): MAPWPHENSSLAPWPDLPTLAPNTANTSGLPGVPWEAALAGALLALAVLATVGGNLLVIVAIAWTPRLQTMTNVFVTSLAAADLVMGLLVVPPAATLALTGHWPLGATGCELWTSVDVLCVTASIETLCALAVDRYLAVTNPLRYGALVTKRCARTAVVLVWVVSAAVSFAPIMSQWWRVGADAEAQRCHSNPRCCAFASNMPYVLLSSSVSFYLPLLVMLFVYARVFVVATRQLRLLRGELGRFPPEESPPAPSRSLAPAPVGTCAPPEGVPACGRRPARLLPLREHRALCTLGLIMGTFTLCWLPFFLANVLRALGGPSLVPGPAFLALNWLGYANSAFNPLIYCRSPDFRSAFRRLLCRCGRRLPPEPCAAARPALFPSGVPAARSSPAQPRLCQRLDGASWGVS
Experimental: (§1) The ability of compounds of this invention to treat or inhibit disorders related to insulin resistance or hyperglycemia was established with representative compounds of this invention in the following standard pharmacological test procedures, which measured the binding selectivity to the β1, β2, and β3 adrenergic receptors. Binding to the receptors was measured in Chinese Hamster ovary (CHO) cells that were transfected with adrenergic receptors. The following briefly summarizes the procedures used and results obtained.
Cloning of Human β3-AR Genomic DNA: cDNA was constructed by ligating four polymerase chain reaction (PCR) products using the following primers: an ATG-Narl fragment, sense primer 5′-[…]3′ and anti-sense primer 5′[…]3′; a Narl-Accl fragment, 5′[…]3′ as sense and 5′[…]3′ as anti-sense primer; an Accli-Styl fragment, sense primer 5′[…]3′ and anti-sense primer 5′[…]3′ and a Styl-TAG fragment, with sense primer 5′[…]3′ and anti-sense primer 5′[…]3′. The corresponding primer sequences are described in Mantzoros, C. S., et.al., Diabetes 45: 909-914 (1996). The four fragments are ligated into a pUC 18 plasmid (Gibco-BRL) and sequenced. Full length β3 AR clones (402 amino acids) containing the last 6 amino acids of hβ3— AR are prepared with the β3-βARpcDNA3from ATTC.
(§2) Binding Procedure: Clones expressing receptor levels of 70 to 110 fmoles/mg protein were used in the test procedures. CHO cells were grown in 24-well tissue culture plates in Dulbecco's Modified Eagle Media with 10% fetal bovine serum, MEM non-essential amino acids, Penicillin-Streptompycin and Geneticin. On the day of test procedure, growth medium was replaced with preincubation media (Dulbecco's Modified Eagle Media and incubated for 30 minutes at 37° C. Preincubation medium was replaced with 0.2 ml treatment medium containing DMEM media containing 250 μM IBMX (isobutyl-1-methylxantine) plus 1 mM ascorbic acid with test compound dissolved in DMSO. Test compounds were tested over a concentration range of 10^−9 M to 10^−5 M for β3 cells and 10^−8 to 10^−4 M for β1 and β2 transfected cells. Isoproterenol (10^−5 M) was used as an internal standard for comparison of activity. Cells were incubated at 37° C. on a rocker for 30 min with the β3 cells and 15 min for β1 and β2 cells. Incubation was stopped with the addition of 0.2N HCl and neutralized with 2.5N NaOH. The plates, containing the cells and neutralized media, were stored at −20 degrees celsius until ready to test for cAMP using the SPA test kit (Amersham).
(§3) Data Analysis and Results: Data collected from the SPA test procedure were analyzed as per cent of the maximal isoproterenol response at 10^−5 M. Activity curves were plotted using the SAS statistical and graphics software. EC50 values were generated for each compound and the maximal response (IA) developed for each compound is compared to the maximal response of isoproternol at 10^−5 M from the following formula:
(§4) IA=% activity compound/% activity isoproterenol

[2] = target: T2, human β2-adrenergic receptor (Homo sapiens, UniProt P07550); assay: cAMP accumulation (SPA) in CHO cells transfected with human β2 adrenergic receptor; conditions: for EC50: CHO cells transfected with human β2-AR, cAMP, 15 min incubation, 10^−8 to 10^−4 M, read-out: beta-2 EC50; for beta-2 (IA) maximal response relative to isoproterenol: IA = % activity compound / % activity isoproterenol at 10^−5 M, CHO human β2 cells
T2 construct: expressed in transfected cells; host or cells: CHO cells
Experimental: as §1
(§5) Transfection of CHO cells with β1 and β2 adrenergic receptors: CHO cells were transfected with human β1- or β2-adrenergic receptors as described in Tate, K. M., Eur. J. Biochem., 196:357-361 (1991).
as §2, §3, §4

[3] = target: T3, human β1-adrenergic receptor (Homo sapiens, UniProt P08588); assay: cAMP accumulation (SPA) in CHO cells transfected with human β1 adrenergic receptor; conditions: for EC50: CHO cells transfected with human β1-AR, cAMP, 15 min incubation, 10^−8 to 10^−4 M, read-out: beta-1 EC50; for beta-1 (IA) maximal response relative to isoproterenol: IA = % activity compound / % activity isoproterenol at 10^−5 M, CHO human β1 cells
T3 construct: expressed in transfected cells; host or cells: CHO cells
T3 sequence (P08588 whole entry): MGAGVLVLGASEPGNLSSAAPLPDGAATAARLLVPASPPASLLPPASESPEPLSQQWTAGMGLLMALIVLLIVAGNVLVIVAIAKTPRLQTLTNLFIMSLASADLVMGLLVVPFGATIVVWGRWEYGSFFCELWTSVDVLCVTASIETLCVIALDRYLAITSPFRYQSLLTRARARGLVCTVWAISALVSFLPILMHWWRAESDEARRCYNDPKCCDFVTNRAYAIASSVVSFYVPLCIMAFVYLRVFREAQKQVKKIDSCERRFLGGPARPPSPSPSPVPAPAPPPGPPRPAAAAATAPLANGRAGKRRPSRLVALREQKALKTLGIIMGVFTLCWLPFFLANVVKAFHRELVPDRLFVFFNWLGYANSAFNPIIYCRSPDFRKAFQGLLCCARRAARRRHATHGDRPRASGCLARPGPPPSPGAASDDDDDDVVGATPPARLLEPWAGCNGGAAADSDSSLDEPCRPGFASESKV
Experimental: as §1, §5, §2, §3, §4

| Molecule | EC50 [1] [nM] | beta-3 (IA) maximal response relative to isoproterenol [1] | EC50 [2] [nM] | beta-2 (IA) maximal response relative to isoproterenol [2] | EC50 [3] [nM] | beta-1 (IA) maximal response relative to isoproterenol [3] |
| --- | --- | --- | --- | --- | --- | --- |
| 1-(4-{4-[2-Hydroxy-2-(4-hydroxy-3-methanesulfonylmethyl-phenyl)-ethylamino]-piperidin-1-yl}-benzenesulfonylamino)-cyclopentane Carboxylic Acid Ethyl Ester [Example 40] | 4 | (1.2) | 40 | (0.31) | 1900 | (0.45) |
| CCCCN(CC(=O)O)S(=O)(=O)c1ccc(N2CCC(NC[C@H](O)c3ccc(O)c(NS(C)(=O)=O)c3)CC2)cc1 [Example 20, [Butyl-(4-{4-[(2R)-2-hydroxy-2-(4-hydroxy-3-methanesulfonylamino-phenyl)-ethylamino]-piperidin-1-yl}-benzenesulfonyl)-amino]-acetic Acid] | 10 | (1) | 10000 | (0.3) | 10000 | (0.4) |
| CCCCN(Cc1ccccc1)S(=O)(=O)c1ccc(N2CCC(NCC(O)c3ccc(O)c(NS(C)(=O)=O)c3)CC2)cc1 (centres unmarked) [Example 3, N-Benzyl-N-butyl-4-{4-[2-hydroxy-2-(4-hydroxy-3-methanesulfonylamino-phenyl)-ethylamino]-piperidin-1-yl}-benzenesulfonamide] | 15 | (1.1) | 310 | (0.59) | 2100 | (0.66) |
| CS(=O)(=O)Nc1cc([C@@H](O)CNC2CCN(c3ccc(S(=O)(=O)N4CCC[C@@H]4C(=O)O)cc3)CC2)ccc1O [Example 35, 1-(4-{4-[(2R)-2-Hydroxy-2-(4-hydroxy-3-methanesulfonylamino-phenyl)-ethylamino]-piperidin-1-yl}-benzenesulfonyl)-pyrrolidine-(2R)-2-carboxylic Acid] | 11 | (1.1) | – | (0.04) | 49000 | (0.66) |
| CN(CC(=O)O)S(=O)(=O)c1ccc(N2CCC(NC[C@H](O)c3ccc(O)c(NS(C)(=O)=O)c3)CC2)cc1 [Example 33, [(4-{4-[(2R)-2-Hydroxy-2-(4-hydroxy-3-methanesulfonylamino-phenyl)-ethylamino]-piperidin-1-yl}-benzenesulfonyl)-methyl-amino]-acetic Acid] | 18 | (1) | – | (0.15) | 25000 | (0.66) |
| CC(C)CNS(=O)(=O)c1ccc(N2CCC(NC[C@H](O)c3ccc(O)c(NS(C)(=O)=O)c3)CC2)cc1 [Example 27, 4-{4-[(2R)-2-Hydroxy-2-(4-hydroxy-3-methanesulfonylamino-phenyl)-ethylamino]-piperidin-1-yl}-N-isobutyl-benzenesulfonamide] | 2 | (1) | 540 | (0.29) | 420 | (0.22) |

Continued, values first:

| EC50 [1] [nM] | beta-3 (IA) maximal response relative to isoproterenol [1] | EC50 [2] [nM] | beta-2 (IA) maximal response relative to isoproterenol [2] | EC50 [3] [nM] | beta-1 (IA) maximal response relative to isoproterenol [3] | Molecule |
| --- | --- | --- | --- | --- | --- | --- |
| 4 | (1) | 10000 | (0.57) | 6700 | (0.48) | CCOC(=O)CN(CC(C)C)S(=O)(=O)c1ccc(N2CCC(NC[C@H](O)c3ccc(O)c(NS(C)(=O)=O)c3)CC2)cc1 [Example 32, [(4-{4-[(2R)-2-Hydroxy-2-(4-hydroxy-3-methanesulfonylamino-phenyl)-ethylamino]-piperidin-1-yl}-benzenesulfonyl)-isobutyl-amino]-acetic Acid Ethyl Ester] |
| 7 | (1.3) | 2900 | (0.48) | 2000 | (0.57) | CC(C)NS(=O)(=O)c1ccc(N2CCC(NC[C@H](O)c3ccc(O)c(NS(C)(=O)=O)c3)CC2)cc1 [Example 29, 4-{4-[(2R)-2-Hydroxy-2-(4-hydroxy-3-methanesulfonylamino-phenyl)-ethylamino]-piperidin-1-yl}-N-isopropyl-benzenesulfonamide] |
| 2 | (1) | 2000 | (0.24) | 800 | (0.58) | CS(=O)(=O)Nc1cc([C@@H](O)CNC2CCN(c3ccc(S(=O)(=O)N4CCCC4)cc3)CC2)ccc1O [Example 41, N-{2-Hydroxy-5-[(1R)-1-hydroxy-2-({1-[4-(1-pyrrolidinylsulfonyl)phenyl]-piperidinyl}-4-amino)ethyl]phenyl}methanesulfonamide] |
| 21 | (0.78) | – | (0) | – | (0.17) | O=c1[nH]c2cccc(OCC(O)CNC3CCN(c4ccc(S(=O)(=O)NCc5ccccc5)cc4)CC3)c2[nH]1 (centres unmarked) [Example 4, N-Benzyl-4-{4-[2-hydroxy-3-(2-oxo-2,3-dihydro-1H-benzoimidazol-4-yloxy)-propylamino]-piperidin-1-yl}-benzenesulfonamide] |
| 160 | (0.93) | 16000 | (0.67) | – | (0.23) | CS(=O)(=O)Nc1cc([C@@H](O)CNC2CCN(c3ccc(S(=O)(=O)N4CCN(CC(=O)O)CC4)cc3)CC2)ccc1O [Example 65] |
| 32 | (1.1) | 380 | (0.32) | 1100 | (0.5) | CCOC(=O)[C@@H](NS(=O)(=O)c1ccc(N2CCC(NC[C@H](O)c3ccc(O)c(NS(C)(=O)=O)c3)CC2)cc1)C(C)C [Example 38, Ethyl (2S)-2-{[(4-{4-[((2R)-2-hydroxy-2-{4-hydroxy-3-[(methylsulfonyl)amino]-phenyl}ethyl)amino]-1-piperidinyl}phenyl)sulfonyl]amino}-3-methylbutanoate] |
| 410 | (0.94) | – | – | – | – | CS(=O)(=O)Nc1cc([C@@H](O)CNC2CCN(c3ccc(S(=O)(=O)N(CC(=O)O)CC(=O)O)cc3)CC2)ccc1O [Example 55, 2-((Carboxymethyl)[(4-{4-[((2R)-2-hydroxy-2-{4-hydroxy-3-[(methylsulfonyl)amino]phenyl)ethyl)amino]-1-piperidinyl}phenyl)sulfonyl]amino}acetic Acid] |
| 200 | (0.76) | – | – | – | – | O=S(=O)(NCc1ccccc1)c1ccc(N2CCC(NC[C@H](O)COc3ccc(O)cc3)CC2)cc1 [Example 6, N-Benzyl-4-{4-[(2S)-2-hydroxy-3-(4-hydroxy-phenoxy)-propylamino]-piperidin-1-yl}-benzenesulfonamide] |
